Data taken from paper PMC5711809, “Bayesian Analysis of MicroScale Thermophoresis Data to Quantify Affinity of Protein:Protein Interactions with Human Survivin” (Scientific Reports, 2017).
“And” between values parts separate entries of the source, which are not always exact repeats. Identical values can stand only once. Like-named read-outs stand apart in the source and are kept apart here. Peptide text beside a SMILES is read from it.

Key:
[1] = solubility in typical aqueous buffers; format: physicochemical
human survivin [2] = target: T1, human survivin (Homo sapiens, UniProt O15392); test: MicroScale Thermophoresis (MST) with chemically labelled survivin; format: binding; details: Buffer B (50 mM Tris pH 7.4, 150 mM NaCl, 10 mM MgCl2, 0.05% Tween-20, 1 mM DTT), 24 °C, three independent dilution series, read-out: KD, Robust (Bayesian)
T1 construct: His8 (pHIS8 vector); made in house; host or cells: E. coli BL21(DE3) star
T1 sequence (O15392 whole entry): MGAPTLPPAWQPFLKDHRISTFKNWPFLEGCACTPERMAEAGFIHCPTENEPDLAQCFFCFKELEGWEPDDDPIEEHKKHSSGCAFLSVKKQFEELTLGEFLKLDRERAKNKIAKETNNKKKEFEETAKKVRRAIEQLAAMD
Experimental: Survivin was expressed in E.coli BL21(DE3) star (Merck) cells using the pHIS8 expression vector used by Verdecia et al.[18] The expression was induced at OD600 0.6–0.8 in Luria Bertani (LB) media by 0.5 mM IPTG and incubated during 3–4 h at 30 °C. The cells were harvested at 6000 g during 20 min and resuspended in lysis buffer containing 50 mM Tris pH 8, 500 mM NaCl, 10 mM imidazole, 0.25 mM Pefabloc®SC (Sigma), […] DNAse (Sigma) and 0.2 mg/ml Lysozyme (Sigma). The cells were lysed with a high pressure homogenizer, using 3 cycles of […]. Survivin was purified by Ni^2+ chelation chromatography using 5 ml HisTrap FF column (GE Healthcare). Overnight dialysis in 50 mM Tris pH8, 150 mM NaCl and 1 mM DTT buffer and a gel filtration purification using a Superdex 75 100/300GL column (GE Healthcare) were done before chemical labelling. […] The borealin^6–20, hSgol1^291–312 and hSgol2^1066–1085 peptides were chemically synthetized (Genscript).
MicroScale Thermophoresis experiments were performed according to the NanoTemper technologies protocol in a Monolith NT.115 (green/blue) instrument (NanoTemper Technologies). […]
Survivin was labelled with the MO-L005 Monolith™ Protein Labeling Kit GREEN-MALEIMIDE (Cysteine Reactive) from NanoTemper Technologies. Peptides derived from hSgol1^291–312 ([…]) and hSgol2^1066–1085 ([…]) were analyzed in Buffer B (50 mM Tris pH 7.4, 150 mM NaCl, 10 mM MgCl2, 0.05% Tween-20 and 1 mM DTT). All samples were measured after an incubation of 5 min (according to “User Starting Guide Monolith® NT.115”).
The experiments were performed using 20% and 40% MST power and between 20–80% LED power at 24 °C. The MST traces were recorded using the standard parameters: 5 s MST power off, 30 s MST power on and 5 s MST power off. The reported measurement values are the combination of two effects: the fast, local environment dependent responses of the fluorophore to the temperature jump and the slower diffusive thermophoresis fluorescence changes. […]

human survivin [3] = target: T2, human survivin (human, UniProt O15392 1-142, GREEN-MALEIMIDE (cysteine reactive) fluorescent label, in the MST experiments only); test: MST; labelled survivin held constant, serial dilution of the peptide; Buffer B (50 mM Tris pH 7.4, 150 mM NaCl, 10 mM MgCl2, 0.05% Tween-20, 1 mM DTT); 5 min incubation; 24 °C; T-jump + thermophoresis; three dilution series; details: both partners purified
T2 construct: survivin, human, 16 kDa; The His tag is detected on the array by a 6X His Tag antibody; for the MST no cleavage of the tag is told; On the array the protein was unlabelled, in the MST labelled on cysteine; source: E. coli BL21(DE3) star, purified (Ni2+ chelation chromatography, gel filtration)
T2 sequence (O15392 whole entry): as above

human survivin [4] = target: T2, human survivin; test: as above; details: both partners purified; remark: listed apart in the source
human survivin [5] = target: T2, human survivin; test: MST; labelled survivin held constant, serial dilution of the peptide; Buffer A (50 mM Tris pH 8.0, 150 mM NaCl, 1 mM DTT, 0.05% Tween); 5 min incubation; 24 °C; T-jump + thermophoresis; three dilution series; details: both partners purified
[6] = 5 min incubation, median and HDI 95% interval of sampled posterior

## CC(C)C[C@H](NC(=O)[C@H](CO)NC(=O)[C@H](CC(N)=O)NC(=O)[C@@H](NC(=O)[C@H](CCCCN)NC(=O)[C@H](C)NC(=O)[C@@H](NC(=O)[C@H](CCCNC(=N)N)NC(=O)[C@H](CO)NC(=O)[C@H](CO)NC(=O)CN)C(C)C)[C@@H](C)O)C(=O)N[C@@H](CCCNC(=N)N)C(=O)N[C@@H](CCCNC(=N)N)C(=O)N[C@@H](CCCNC(=N)N)C(=O)N[C@@H](CCCCN)C(=O)O [Borealin^6–20, GSSRVAKTNSLRRRK] (H-GSSRVAKTNSLRRRK-OH)
[1]
  solubility (in words): soluble

## CSCC[C@H](NC(=O)[C@H](CCCNC(=N)N)NC(=O)[C@H](CCCCN)NC(=O)[C@H](CO)NC(=O)[C@H](CCCCN)NC(=O)[C@H](CCCNC(=N)N)NC(=O)[C@H](CCCNC(=N)N)NC(=O)[C@H](CC(N)=O)NC(=O)[C@H](C)NC(=O)[C@H](CCCCN)NC(=O)[C@H](CCCNC(=N)N)NC(=O)[C@H](CCCCN)NC(=O)[C@H](CCC(=O)O)NC(=O)[C@H](CCC(=O)O)NC(=O)[C@H](CCCNC(=N)N)NC(=O)[C@@H](N)CCCCN)C(=O)N[C@@H](CO)C(=O)N[C@@H](CCCCN)C(=O)N[C@@H](Cc1ccc(O)cc1)C(=O)N[C@@H](CCCCN)C(=O)N[C@@H](CCC(=O)O)C(=O)N[C@@H](CC(N)=O)C(=O)O [hSgol1^291–312] (H-KREEKRKANRRKSKRMSKYKEN-OH)
Human survivin [2]; [6]
  Kd: 80.7 µM
Human survivin [2]; 120 min incubation, median and HDI 95% interval, incubation time affected adversely the sample quality
  Kd: 53.6 µM

## CSCC[C@H](NC(=O)[C@H](CCCCN)NC(=O)[C@H](CC(N)=O)NC(=O)[C@@H](NC(=O)[C@H](CCCCN)NC(=O)[C@H](CCCCN)NC(=O)[C@@H](NC(=O)[C@H](CCC(N)=O)NC(=O)[C@H](CS)NC(=O)[C@@H](N)CCC(=O)O)C(C)C)C(C)C)C(=O)N[C@H](C(=O)N[C@@H](CO)C(=O)N[C@@H](CCCCN)C(=O)N[C@@H](CO)C(=O)N[C@@H](CCCCN)C(=O)N[C@@H](CCCCN)C(=O)N[C@@H](CCCNC(=N)N)C(=O)N[C@@H](CCCCN)C(=O)N[C@H](C(=O)N[C@@H](CO)C(=O)O)[C@@H](C)O)[C@@H](C)O [hSgol2^1066–1085] (H-ECQVKKVNKMTSKSKKRKTS-OH)
Human survivin [2]; [6]
  Kd: 1.6 µM

B1: hSgol2^1066–1085 peptide (peptide)
peptide: ECQVKKVNKMTSKSKKRKTS
notes: human Shugoshin-like 2 (hSgol2), residues 1066-1085; also called hSgol2 peptide; source: synthetic peptide (Genscript)
Human survivin [3]
  Kd: 1.6 µM and 1.4 µM

B2: hSgol1^291–312 peptide (peptide)
peptide: KREEKRKANRRKSKRMSKYKEN
notes: human Shugoshin-like 1 (hSgol1), residues 291-312, with the KEN motif; also called hSgol1 peptide; source: synthetic peptide (Genscript)
Human survivin [4]
  Kd: 80.9 µM

B3: borealin^6–20 peptide (peptide)
peptide: GSSRVAKTNSLRRRK
notes: borealin, human, residues 6-20; source: synthetic peptide (Genscript) for MST; laser-printed on the PEPperCHIP peptide microarray (PEPperPRINT)
Human survivin [5]
  Kd: 10.8 µM and 10.2 µM and 10 µM
